Measurements from patent publication US12239643B2, “Therapeutic agent for inflammatory diseases, autoimmune diseases, fibrotic diseases, and cancer diseases” (MEIJI SEIKA PHARMA CO., LTD., priority 2018, dated 2025).
Like-named read-outs stand apart in the source and are kept apart here.

Experiments:
[1] = test system: oxazolone-induced auricle edema, BALB/c mice; test: Hapten repeated application mouse chronic dermatitis model (oral, topical); assay type: in vivo; details: oral, 0.3 to 10 mg/kg twice a day for 10 days
Experimental: Evaluation was carried out using female BALB/c mice (7 to 8 weeks of age). First, the hair of the abdomen of the mice was treated with a hair clipper, and then 150 μL of a 3% oxazolone acetone/ethanol solution was applied to the abdomen as a hapten. One week later, 20 μL/ear of 1% oxazolone acetone/ethanol solution was applied to the outer surface of the auricle of both ears of the mice 3 times/week to induce inflammation. A 1% oxazolone-acetone/ethanol solution was applied every other day for 10 days from 1 week after the start of inflammation induction. In addition, for 10 days from 1 week after the start of inflammation induction, the test compound suspended in 0.5% w/v methylcellulose (0.5% MC) was orally administered at 0.3 to 10 mg/kg twice a day (10 μL/g), or 20 μL of a 0.3 to 3% test compound dissolved in an acetone/ethanol solution was applied once or twice a day (topical administration). A 1% oxazolone was not applied to the blank. The control was one in which 1% oxazolone was applied and only 0.5% MC was orally administered without using the test compound, or only an acetone/ethanol solution was applied.
After administration for 10 days, auricle thickness was measured using a dial thickness gauge, and the changes in auricular thickness before the treatment (immediately before the start of administration of the test compound) and after the treatment (after the administration of the test compound for 10 days) were used to calculate the edema suppression rate by the following formula. Edema Suppression Rate (%)={1−(Auricle Thickness After Treatment by Test Compound−Auricle Thickness Before Treatment by Test Compound)/(Auricle Thickness After Treatment of Control−Auricle Thickness Before Treatment of Control)}×100
The measurement results obtained by measuring the edema suppression rate at the time of oral administration of each test compound by the above method were evaluated in accordance with the following evaluated basis; A: 70% or more, B: 40% or more and less than 70%, and C: less than 40%. In addition, the measurement results obtained by measuring the edema suppression rate at the time of topical administration of each test compound were evaluated in accordance with the following evaluated basis; A: 100% or more, B: 70% or more and less than 100%, and C: less than 70%.

[2] = test system: PDE4; test: Evaluation of PDE4 inhibitory activity, scintillation proximity assay; assay type: biochemical; details: for PDE4 inhibitory activity: summary in words of Tables 57 to 69
How it was run: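 SPA with [2,8-3H]-cAMP and diluted PDE4 enzyme preparation in 50 mM Tris-HCl pH 7.4, 8.3 mM MgCl2, 1.7 mM EGTA, 3 mg/mL BSA, 120 min at room temperature. Product captured on ZnSO4-containing YSi-SPA beads, scintillation counted; IC50 from inhibition curves vs DMSO control and no-enzyme blank.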

[3] = test system: TNFα; test: Cytokine suppression using whole human blood: TNFα (lipopolysaccharide stimulus); assay type: cell-based; details: human whole blood, read-out: TNFα Inhibitory Activity, Human Whole Blood (Test Example 3)
Experimental: The test compound dissolved in dimethyl sulfoxide was added to a 96-well plate, and RPMI-1640 medium and human peripheral blood containing sodium heparin were added, followed by culture at 37° C. under 5% CO2 for 1 hour. A medium containing only dimethyl sulfoxide instead of the test compound was added to the control well. To each well, lipopolysaccharide (final concentration 10 ng/mL) as a TNFα production stimulant, or phytohaemagglutinin (final concentration 20 μg/mL) as an IL-17A production stimulant, or CytoStim reagent ( 1/100 concentration) and CD28 antibody (final concentration 2.5 ng/mL) as an IL-4 production stimulant and an IL-5 production stimulant were added, followed by culture at 37° C. under 5% CO2. The culture was carried out for about 18 hours for the evaluation of the amount of TNFα, and for about 48 hours for the evaluation of the amounts of IL-17A, IL-4, and IL-5.
After collecting the culture supernatant after culturing, the amount of each cytokine was measured by the sandwich ELISA method. The cytokine production suppression rate (inhibition rate) by the test compound was calculated by the following formula from the cytokine production amount when the test compound was added, with the cytokine production amount for the control well as 100%. Inhibition Rate={1−(Cytokine Amount at Addition of Each Test Compound)/(Cytokine Amount for Control Well)}×100
In addition, the cytokine inhibitory activity (concentration for the inhibition rate of 50%) of the test compound was calculated from the inhibition curves based on the inhibition rates for various concentrations of the test compound.
The measurement results obtained by measuring the TNFα inhibitory activity and IL-5 inhibitory activity (50% inhibitory concentration) of the test compounds by the above method were evaluated in accordance with the following evaluated basis; A: less than 100 nM, B: 100 nM or more and less than 500 nM, and C: 500 nM or more. In addition, the measurement results obtained by measuring the IL-17A inhibitory activity and IL-4 inhibitory activity (50% inhibitory concentration) of the test compounds were evaluated in accordance with the following evaluated basis; A: less than 500 nM, B: 500 nM or more and less than 5000 nM, and C: 5000 nM or more.

[4] = test system: TNFα; test: Cytokine suppression using human peripheral blood mononuclear cells: TNFα; assay type: cell-based; details: human PBMC, lipopolysaccharide 1 ng/mL; read-out: TNFα Inhibitory Activity, Human PBMC (Test Example 4)
Experimental: First, peripheral blood mononuclear cells (PBMC) were separated from whole blood by specific gravity centrifugation. Then, the isolated peripheral blood mononuclear cells were added to RPMI-1640 medium (containing 10% fetal bovine serum, penicillin, streptomycin, L-glutamine, and 2-mercaptoethanol), and cultured in a 96-well plate at 37° C. under 5% CO2 for 0 to 1 hour. The test compound dissolved in dimethyl sulfoxide was added to each well, followed by further culture at 37° C. under 5% CO2 for 1 hour. A medium containing only dimethyl sulfoxide instead of the test compound was added to the control well. To each well, lipopolysaccharide (final concentration 1 ng/mL) as a TNFα production stimulant and an IL-23 production stimulant, or concanavalin A (final concentration 20 μg/mL) as an IL-17A production stimulant was added, followed by culture at 37° C. under 5% CO2. In addition, as IL-4 production stimulus, IL-5 production stimulus, and IL-13 production stimulus, PBMC was seeded on a 96-well plate previously coated with a CD3 antibody (final concentration 3 μg/mL), and a CD28 antibody (final concentration 5 ng/mL) was added. The culture was carried out for about 18 hours for the evaluation of the amounts of TNFα and IL-23, and about 48 hours for the evaluation of the amounts of IL-17A, IL-4, IL-5, and IL-13. After collecting the culture supernatant after culturing, the amount of each cytokine was measured by the sandwich ELISA method in the same manner as in Test Example 3, and the cytokine production suppression rate (inhibition rate) and the cytokine inhibitory activity (concentration for the inhibition rate of 50%) of each test compound were calculated.
The measurement results obtained by measuring the TNFα inhibitory activity and IL-5 inhibitory activity (50% inhibitory concentration) of the test compounds by the above method were evaluated in accordance with the following evaluated basis; A: less than 10 nM, B: 10 nM or more and less than 100 nM, and C: 100 nM or more. In addition, the measurement results obtained by measuring the IL-17A inhibitory activity, IL-23 inhibitory activity, IL-4 inhibitory activity, and IL-13 inhibitory activity (50% inhibitory concentration) of the test compounds were evaluated in accordance with the following evaluated basis; A: less than 500 nM, B: 500 nM or more and less than 5000 nM, and C: 5000 nM or more.

[5] = test system: TGF-β; test: TGF-β inhibitory activity using THP1 cells differentiated into macrophages; assay type: cell-based; details: Homo sapiens, THP-1; THP1 cells differentiated into macrophages, lipopolysaccharide 1 μg/mL, about 7 hours; read-out: TFG-β Inhibitory Activity (Test Example 6)
Experimental: The TGF-β inhibitory activity was measured using THP1 cells as follows. First, THP1 cells were seeded on a 24-well culture plate at […], and culture was carried out overnight at 37° C. and 5% CO2 in RPMI-1640 medium (containing 10% fetal bovine serum, penicillin, and streptomycin) supplemented with 100 nM phorbol myristate acetate. After that, the cells were differentiated into macrophages by changing to RPMI-1640 medium without phorbol myristate acetate, followed by further culture at 37° C. under 5% CO2 overnight. Next, the THP1 culture plate was washed once with PBS(−) 1 mL/well, and then the test compound and lipopolysaccharide (final concentration 1 μg/mL) were added, followed by culture at 37° C. under 5% CO2 for about 7 hours. After culturing, the entire amount of the medium was collected, and the amount of TGF-β in the centrifuged supernatant was quantified by the sandwich ELISA method. The non-addition of lipopolysaccharide was used as a blank, and the control was obtained by adding only dimethyl sulfoxide instead of the test compound, and the inhibition rate of the test compound against the control was calculated by the following formula. Inhibition Rate (%)={1−(Value at Addition of Each Test Compound−Blank Value)/(Control Value−Blank Value)}×100
In addition, the TGF-β inhibitory activity (concentration for the inhibition rate of 50%) of the test compound was calculated from the inhibition curves based on the inhibition rate for various concentrations of the test compound.
The measurement results obtained by measuring the TFG-β inhibitory activity (50% inhibitory concentration) of the test compounds by the above method were evaluated in accordance with the following evaluated basis; A: less than 1 μM, and B: 1 μM or more.

[6] = Hepatic metabolic stability (rat liver microsome method); assay type: in vitro ADME; details: rat liver microsomes 0.5 mg/mL, test substance 1 μM, NADPH 1 mM, 37° C., 30 minutes
How it was run: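 Rat liver microsomes (0.5 mg/mL final) with test compound (1 μM final) in 100 mM potassium phosphate pH 7.4, 37° C; reaction started with NADPH (1 mM final) after 5 min preincubation. Acetonitrile stop at 0 and 30 min, LC-MS quantitation; % remaining = 30 min/0 min ×100, graded A ≥75%, B 60–<75%, C 45–<60%, D <45%.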

[7] = finer grading of compounds rated A in Evaluation 1, read-out: PDE4 Inhibitory Activity (Evaluation 2)
[8] = scintillation proximity assay, class symbols of Evaluation 1, read-out: PDE4 Inhibitory Activity (concentration for the inhibition rate of 50%, IC50), Evaluation 1
[9] = scintillation proximity assay, read-out: PDE4 Inhibitory Activity (Evaluation 1; concentration for the inhibition rate of 50%)

Row | SMILES | Mouse Chronic Dermatitis Model (Test Example 8), Oral: edema suppression rate [1] | IC50 [2, 7] | IC50 [2, 8] | PDE4 inhibitory activity [2] | IC50 [3] | IC50 [4] | IC50 [2, 9] | IC50 ([3]; Homo sapiens) | IC50 [5] | Residual ratio (% remaining for 30-minute reaction) [6]
1 | OC(c1ccc(-c2nccs2)c2oc(N3CC4CCC(C3)N4)nc12)C(F)(F)F (centres unmarked) [Example 119, 1-(2-(3,8-Diazabicyclo[3.2.1]octan-3-yl)-7-(thiazol-2-yl)benzo[d]oxazol-4-yl)-2,2,2-trifluoroethan-1-ol] | A (A: 70% or more) | ≤ 1 nM | < 100 nM | particularly excellent | < 100 nM | < 10 nM |  |  |  | 
2 | COC(C)(C)c1cc(-c2nccs2)c2oc(N3CC4CCC(C3)N4)nc2c1OC(F)(F)F [Example 198, 2-(3,8-Diazabicyclo[3.2.1]octan-3-yl)-5-(2-methoxypropan-2-yl)-7-(thiazol-2-yl)-4-(trifluoromethoxy)benzo[d]oxazole] |  | ≤ 1 nM |  | particularly excellent |  |  | < 100 nM | 100 to 500 nM |  | 
3 | CC(C)(O)c1cc(-c2nccs2)c2oc(N3CC4CCC(C3)N4)nc2c1OC(F)(F)F [Example 195, 2-(2-(3,8-diazabicyclo[3.2.1]octan-3-yl)-7-(thiazol-2-yl)-4-(trifluoromethoxy)benzo[d]oxazol-5-yl)propan-2-ol] | B (B: 40% or more and less than 70%) | ≤ 1 nM |  | particularly excellent |  |  | < 100 nM | 100 to 500 nM | < 1000 nM | 
4 | COC(C)(C)c1cc(-c2nccs2)c2oc(N3CC4CC(C3)N4)nc2c1C(F)(F)F [Example 176, 2-(3,6-Diazabicyclo[3.1.1]heptan-3-yl)-5-(2-methoxypropan-2-yl)-7-(thiazol-2-yl)-4-(trifluoromethyl)benzo[d]oxazole] | B (B: 40% or more and less than 70%) | 1 to 11 nM | < 100 nM | particularly excellent |  |  |  | 100 to 500 nM |  | 
5 | OC(c1ccc(-c2nccs2)c2oc(N3CC4CCC(C3)N4)nc12)C(F)(F)F (centres unmarked) [Example 118, 1-(2-(3,8-Diazabicyclo[3.2.1]octan-3-yl)-7-(thiazol-2-yl)benzo[d]oxazol-4-yl)-2,2,2-trifluoroethan-1-ol] | B (B: 40% or more and less than 70%) | 1 to 11 nM | < 100 nM | particularly excellent |  |  |  | 100 to 500 nM |  | 
6 | OCC(F)(F)Oc1ccc(-c2nccs2)c2oc(N3CC4CC(C3)N4)nc12 [Example 249, 2-((2-(3,6-Diazabicyclo[3.1.1]heptan-3-yl)-7-(thiazol-2-yl)benzo[d]oxazol-4-yl)oxy)-2,2-difluoroethan-1-ol] | B (B: 40% or more and less than 70%) | ≤ 1 nM |  | particularly excellent |  |  | < 100 nM | < 100 nM |  | B (B: 60% or more and less than 75%)
